US20230285606A1, “METHODS AND AGENTS FOR THE DETECTION AND TREATMENT OF CANCER” (CASE WESTERN RESERVE UNIVERSITY, priority 2020, published 2023)
No end group written: not given here.

What was measured:
[1] = tested on: heterotopic xenograft flank U87 tumor implants; test: In vivo fluorescence imaging of heterotopic xenograft U87 flank tumors; conditions: mice with U87 flank tumors; fluorophore-conjugated peptide injected via tail vein; FIG. 1/FIG. 2
Protocol: (§1) The human U87-MG and LN-229 glioma cell line was purchased from American Type Culture Collection (Manassas, Va., USA) and cultured. NIH athymic nude mice (5-8 weeks and 20-25 g on arrival; NCI-NIH) were maintained at the Athymic Animal Core Facility at Case Western Reserve University according to institutional policies. All animal protocols were approved by the Institutional Animal Care and Use Committee (IACUC). The cells were diluted in a 1:1 mixture of PBS and BD MATRIGEL Matrix (BD Biosciences, Franklin Lakes, N.J., USA), and injected into the right flank of nude athymic mice (NCr-nu/+, NCr-nu/nu, 20-25 g each). The Matrigel-cell mixture was loaded into a 1-ml syringe fitted with a 26-gauge needle and kept on ice. The mixture was injected subcutaneously in the right flank region of the mouse. Flank tumors were grown for 2 to 3 weeks. Each flank was implanted with 1.4-2×10^6 cells. To correlate tumor position with GFP fluorescence, mice were imaged using the Perkin-Elmer MAESTRO FLEX In vivo Imaging System. For in vivo analyses, the mice were anesthetized with inhaled isoflurane/oxygen and imaged. For ex vivo analyses, mice were sacrificed by decapitation. […]
(§2) Nude mice with heterotopic (flank) tumors were typically imaged 3 to 6 weeks following tumor initiation. […] Average radiant intensity units, calculated by the LivingImage software, were obtained for each ROI. […]

[2] = tested on: heterotopic xenograft flank U87 tumor implants overexpressing PTPmu; test: In vivo fluorescence imaging of heterotopic xenograft U87 flank tumors overexpressing PTPmu; conditions: mice with U87 flank tumors overexpressing PTPmu; FIG. 2
Protocol: as §1, §2

Peptide 3: SBK linked to a fluorophore with a glycine/serine spacer (GEGDDFNWEQVNTLTKPTSD; also: fluorophore linked via glycine/serine spacer, not defined)
in vivo average radiant efficiency [1]: increased average radiant efficiency compared to the second agent | in vivo average radiant efficiency [2]: increased average radiant efficiency compared to the second agent

Peptide 2: SBK linked to a fluorophore with a polyglycine peptide spacer (GEGDDFNWEQVNTLTKPTSD; also: fluorophore linked via polyglycine spacer, not defined)
in vivo average radiant efficiency [1]: increased average radiant efficiency compared to the first agent, without a spacer, and the control agent
